# Measured values from patent US20090176817A1, “Method of Treatment of Diarrhea-Predominant Irritable Bowel Syndrome in a Subject” (priority 2005, published 2009).
# System: diarrhea-predominant IBS subjects
# Assay: Study S241.3.011: weekly diary questions on adequate relief
# Format: in vivo, human
# Protocol: Study S241.3.011 was a Phase III, double-blind, placebo-controlled, randomized, multinational study to investigate the safety and efficacy of 2 mg TID of cilansetron for a period of 12 weeks followed by a rerandomized, placebo-controlled four-week treatment period, in diarrhea-predominant IBS subjects. The study was conducted in six countries including the US. A total of 2115 subjects consented to participate, and 770 subjects were randomized. A total of 746 subjects were analyzed for efficacy and 755 subjects were analyzed for safety. Diagnosis and main criteria for inclusion were IBS subjects satisfying the Rome I criteria (1992); the diarrhea predominant sub-population of the Rome II criteria; and a minimum abdominal pain/discomfort, stool frequency and consistency determined during the run-in period. Subjects were treated with cilansetron 2 mg tablets given orally TID or matching placebo tablets given orally TID for 12 weeks followed by a rerandomized, placebo-controlled four-week treatment period.
# The primary efficacy parameter was the number of months that a subject was a responder for IBS symptoms (abdominal pain, abdominal discomfort, abnormal bowel habits) over the 12-week treatment period. A responder for a month (monthly responder) was defined as a subject who answered the weekly question with “yes” at least twice for that month. The two main secondary efficacy parameters were the monthly responder rates based on the “adequate relief” questions regarding abdominal pain/discomfort and abnormal bowel habits during the 12-week treatment period. The overall response rate and responder rate for the weekly diary questions on adequate relief at each month and all months, the adequate relief rate, the number of subjects with adequate relief by week, daily diary questions, IBS-QOL scores, and the interruption of activities were also assessed. Safety was evaluated by physical examination, ECG, vital signs, laboratory evaluations, concomitant medications, and AEs.
# Subjects who were initially randomized to the cilansetron 2 mg TID group and rerandomized to placebo, will be referred to as the C/P treatment group; subjects initially randomized to the placebo group and rerandomized to placebo will be referred to as the P/P treatment group; the P/C and C/C treatment group nomenclature follow the same principle. Of the 591 subjects who completed the three-month treatment period, 576 subjects were rerandomized and thus divided into the following treatment groups: 150 subjects in the C/C treatment group, 140 subjects in the C/P treatment group, 136 subjects in the P/C treatment group, and 150 subjects in the P/P treatment group. Of the 576 subjects rerandomized, a higher percentage of subjects in the C/C treatment group (99%) completed the study compared with the C/P (95%), P/C (93%), and the P/P (95%) treatment groups.
# Studies S24 1.3.OO6, S24 1.3.0 1 1, and S24 1.3.009 used the following efficacy measurements: • The subjects answered the following three questions with “yes” or “no” using a phone diary at the end of each week: • a) During the last week, did you experience adequate relief of your IBS symptoms, such as abdominal pain, abdominal discomfort, abnormal bowel habits? • b) During the last week, did you experience adequate relief of your abdominal pain and/or discomfort? • c) During the last week, did you experience adequate relief of your abnormal bowel habits? • The subjects rated the following symptoms using the phone diary at the end of each day: • abdominal pain/discomfort (five-point scale); • stool consistency (seven-point Bristol Stool Scale); • stool frequency (number of bowel movements each day); • urgency (five-point scale); • straining (yes or no); • feeling of incomplete defecation (yes or no); • bloating or feeling of abdominal distension (five-point scale). • In Studies S241 A006 and S241.3.009, subjects completed the IBS-QOL Survey at Baseline (Day 1) and at the end of treatment. […]
# [1] = 2 mg TID, monthly LOCF, ITT N = 377
# [2] = 2 mg TID, three-month treatment period, monthly LOCF, ITT N = 377
# [3] = 2 mg TID, three-month treatment period, observed case, ITT N = 377
# [4] = Baseline BMI: <30 kg/m^2, three-month treatment period, monthly LOCF, ITT, 2 mg TID
structure (smiles),measurement,setting,value
"Cc1nccn1C[C@H]1CCc2c(c3cccc4c3n2CCC4)C1=O [Cilansetron, (R)-(−)-4,5,6,8,9,10-hexahydro-10-[(2-methyl-1H-imidazol-1-yl)methyl]-11H-pyrido-[3,2,1-jk]-carbazol-11-one]","Responders for one month, IBS symptoms","2 mg TID, 3 months",14%
same,"Responders for one month, abdominal pain/discomfort","2 mg TID, 3 months",12%
same,"Responders for one month, abnormal bowel habits","2 mg TID, 3 months",13%
same,"Responders for three months, IBS symptoms","2 mg TID, 3 months",39%
same,"Responders for three months, abdominal pain/discomfort","2 mg TID, 3 months",42%
same,"Responders for three months, abnormal bowel habits","2 mg TID, 3 months",40%
same,"Responders for two months, IBS symptoms","2 mg TID, 3 months",19%
same,"Responders for two months, abdominal pain/discomfort","2 mg TID, 3 months",19%
same,"Responders for two months, abnormal bowel habits","2 mg TID, 3 months",18%
same,"Responders for zero months, IBS symptoms","2 mg TID, 3 months",28%
same,"Responders for zero months, abdominal pain/discomfort","2 mg TID, 3 months",27%
same,"Responders for zero months, abnormal bowel habits","2 mg TID, 3 months",30%
same,"Responder rate, adequate relief of IBS symptoms, Each month of Months 1 to 3",[1],148 (39) n (%)
same,"Responder rate, adequate relief of IBS symptoms, Month 1",[1],216 (57) n (%)
same,"Responder rate, adequate relief of IBS symptoms, Month 2",[1],214 (57) n (%)
same,"Responder rate, adequate relief of IBS symptoms, Month 3",[1],208 (55) n (%)
same,"Responder rate, adequate relief of abdominal pain/discomfort, Each month of Months 1 to 3",[1],159 (42) n (%)
same,"Responder rate, adequate relief of abdominal pain/discomfort, Month 1",[1],217 (58) n (%)
same,"Responder rate, adequate relief of abdominal pain/discomfort, Month 2",[1],229 (61) n (%)
same,"Responder rate, adequate relief of abdominal pain/discomfort, Month 3",[1],220 (58) n (%)
same,"Responder rate, adequate relief of abnormal bowel habits, Each month of Months 1 to 3",[1],149 (40) n (%)
same,"Responder rate, adequate relief of abnormal bowel habits, Month 1",[1],214 (57) n (%)
same,"Responder rate, adequate relief of abnormal bowel habits, Month 2",[1],209 (55) n (%)
same,"Responder rate, adequate relief of abnormal bowel habits, Month 3",[1],206 (55) n (%)
same,"Subjects who were responders for One month, adequate relief of IBS symptoms",[2],54 (14) n (%)
same,"Subjects who were responders for One month, adequate relief of abdominal pain/discomfort",[2],45 (12) n (%)
same,"Subjects who were responders for One month, adequate relief of abnormal bowel habits",[2],50 (13) n (%)
same,"Subjects who were responders for Three months, adequate relief of IBS symptoms",[2],148 (39) n (%)
same,"Subjects who were responders for Three months, adequate relief of abdominal pain/discomfort",[2],159 (42) n (%)
same,"Subjects who were responders for Three months, adequate relief of abnormal bowel habits",[2],149 (40) n (%)
same,"Subjects who were responders for Two months, adequate relief of IBS symptoms",[2],70 (19) n (%)
same,"Subjects who were responders for Two months, adequate relief of abdominal pain/discomfort",[2],72 (19) n (%)
same,"Subjects who were responders for Two months, adequate relief of abnormal bowel habits",[2],66 (18) n (%)
same,"Subjects who were responders for Zero months, adequate relief of IBS symptoms",[2],105 (28) n (%)
same,"Subjects who were responders for Zero months, adequate relief of abdominal pain/discomfort",[2],101 (27) n (%)
same,"Subjects who were responders for Zero months, adequate relief of abnormal bowel habits",[2],112 (30) n (%)
same,"Overall responder rate, adequate relief of IBS symptoms",[3],206 (55) n (%)
same,"Overall responder rate, adequate relief of abdominal pain/discomfort",[3],221 (59) n (%)
same,"Overall responder rate, adequate relief of abnormal bowel habits",[3],203 (54) n (%)
same,"Median adequate relief rate, IBS symptoms",3 months,0.58
same,"Median adequate relief rate, abdominal pain/discomfort",3 months,0.58
same,"Median adequate relief rate, abnormal bowel habits",3 months,0.58
same,"Overall responder rate, IBS symptoms","3 months, observed case, ITT",55%
same,"Overall responder rate, abdominal pain/discomfort","3 months, observed case, ITT",59%
same,"Overall responder rate, abnormal bowel habits","3 months, observed case, ITT",54%
same,"Responder rate, abdominal pain/discomfort",Argentina and Chile,65%
same,Number of months a subject was a responder: One month (Abdominal pain/discomfort),[4],30 (11) n (%)
same,Number of months a subject was a responder: One month (Abnormal bowel habits),[4],33 (12) n (%)
same,Number of months a subject was a responder: One month (IBS symptoms),[4],38 (14) n (%)
same,Number of months a subject was a responder: Three months (Abdominal pain/discomfort),[4],113 (42) n (%)
same,Number of months a subject was a responder: Three months (Abnormal bowel habits),[4],104 (39) n (%)
same,Number of months a subject was a responder: Three months (IBS symptoms),[4],107 (40) n (%)
same,Number of months a subject was a responder: Two months (Abdominal pain/discomfort),[4],50 (19) n (%)
same,Number of months a subject was a responder: Two months (Abnormal bowel habits),[4],51 (19) n (%)
same,Number of months a subject was a responder: Two months (IBS symptoms),[4],48 (18) n (%)
same,Number of months a subject was a responder: Zero months (Abdominal pain/discomfort),[4],73 (27) n (%)
same,Number of months a subject was a responder: Zero months (Abnormal bowel habits),[4],78 (29) n (%)
